≈ marks a conversion by molar mass, not a printed value.
What was measured:
[1] = tested on: Escherichia coli; test: Antimicrobial activity against Escherichia coli TOP10 harboring pADC-11 plasmid carrying entire blaAmpC gene with alanine residue insertion at 215 position by Etest method; assay type: functional
[2] = tested on: Acinetobacter baumannii; test: Antimicrobial activity against Acinetobacter baumannii beta-lactamase by Etest method; assay type: functional
[3] = tested on: Acinetobacter baumannii; test: Antimicrobial activity against Acinetobacter baumannii KI by Etest method; assay type: functional
[4] = tested on: Acinetobacter baumannii; test: Antimicrobial activity against Acinetobacter baumannii expressing ESAC beta-lactamase by Etest method; assay type: functional
[5] = tested on: Acinetobacter baumannii; test: Antimicrobial activity against Acinetobacter baumannii CIP70.10 by Etest method; assay type: functional
[6] = tested on: Escherichia coli; test: Antimicrobial activity against Escherichia coli TOP10 harboring pADC-50 plasmid by Etest method; assay type: functional
[7] = tested on: Escherichia coli; test: Antimicrobial activity against Escherichia coli TOP10 harboring pADC-11 plasmid by Etest method; assay type: functional
[8] = tested on: Escherichia coli; test: Antimicrobial activity against Escherichia coli TOP10 harboring pADC-33 plasmid with entire blaAmpC gene by Etest method; assay type: functional
[9] = tested on: Escherichia coli; test: Antimicrobial activity against Escherichia coli TOP10 harboring pADC-11 plasmid with entire blaAmpC gene by Etest method; assay type: functional
[10] = tested on: Escherichia coli; test: Antimicrobial activity against Escherichia coli TOP10 harboring pADC-33 plasmid with entire blaAmpC gene with alanine residue deletion at 215 position by Etest method; assay type: functional
[11] = tested on: Escherichia coli; test: Antimicrobial activity against Escherichia coli TOP10 harboring pADC-33 plasmid carrying entire blaAmpC gene with alanine residue deletion at 215 position and R210P substitution by Etest method; assay type: functional
[12] = tested on: Escherichia coli; test: Antimicrobial activity against Escherichia coli TOP10 harboring pADC-33 plasmid by Etest method; assay type: functional
[13] = tested on: Acinetobacter baumannii; test: Ratio of Kcat to Km for Acinetobacter baumannii ADC-33 beta-lactamase to Kcat to Km for Acinetobacter baumannii ADC-11 beta-lactamase
[14] = tested on: Acinetobacter baumannii; test: Antimicrobial activity against Acinetobacter baumannii AYE expressing VEB-1 gene by Etest method; assay type: functional
[15] = tested on: Escherichia coli; test: Antimicrobial activity against Escherichia coli TOP10 harboring pADC-11 plasmid by Etest method in presence of clavulanic acid; assay type: functional
[16] = tested on: Escherichia coli; test: Antimicrobial activity against Escherichia coli TOP10 harboring pADC-33 plasmid carrying entire blaAmpC gene with alanine residue deletion at 215 position by Etest method in presence of clavulanic acid; assay type: functional
[17] = tested on: Escherichia coli; test: Antimicrobial activity against Escherichia coli TOP10 harboring pADC-11 plasmid carrying entire blaAmpC gene with alanine residue insertion at 215 position by Etest method in presence of clavulanic acid; assay type: functional
[18] = tested on: Escherichia coli; test: Antimicrobial activity against Escherichia coli TOP10 harboring pADC-33 plasmid carrying entire blaAmpC gene with alanine residue deletion at 215 position and R210P substitution by Etest method in presence of clavulanic acid; assay type: functional
[19] = tested on: Escherichia coli; test: Antimicrobial activity against Escherichia coli TOP10 harboring pTOPO plasmid by Etest method in presence of clavulanic acid; assay type: functional
[20] = tested on: Escherichia coli; test: Antimicrobial activity against Escherichia coli TOP10 harboring pTOPO plasmid by Etest method; assay type: functional
[21] = tested on: Acinetobacter baumannii; test: Antimicrobial activity against Acinetobacter baumannii CIP70.10 by Etest method in presence of clavulanic acid; assay type: functional
[22] = tested on: Acinetobacter baumannii; test: Antimicrobial activity against Acinetobacter baumannii AYE expressing VEB-1 gene by Etest method in presence of clavulanic acid; assay type: functional
[23] = tested on: Escherichia coli; test: Antimicrobial activity against Escherichia coli TOP10 harboring pADC-33 plasmid by Etest method in presence of clavulanic acid; assay type: functional
[24] = tested on: Escherichia coli; test: Antimicrobial activity against Escherichia coli TOP10 harboring pADC-11 plasmid carrying entire blaAmpC gene with alanine residue deletion at 215 position and R210P substitution by Etest method in presence of clavulanic acid; assay type: functional
[25] = tested on: Escherichia coli; test: Antimicrobial activity against Escherichia coli TOP10 harboring pADC-33 plasmid carrying entire blaAmpC gene by Etest method in presence of clavulanic acid; assay type: functional
[26] = tested on: Escherichia coli; test: Antimicrobial activity against Escherichia coli TOP10 harboring pADC-50 plasmid by Etest method in presence of clavulanic acid; assay type: functional
[27] = tested on: Escherichia coli; test: Antimicrobial activity against Escherichia coli TOP10 harboring pADC-11 plasmid carrying entire blaAmpC gene by Etest method in presence of clavulanic acid; assay type: functional
[28] = tested on: Escherichia coli; test: Antimicrobial activity against Escherichia coli TOP10 harboring pADC-11 plasmid carrying entire blaAmpC gene with alanine residue insertion at 215 position and R210P substitution by Etest method; assay type: functional
[29] = tested on: Acinetobacter baumannii; test: Antimicrobial activity against Acinetobacter baumannii KI by Etest method in presence of clavulanic acid; assay type: functional
[30] = biological target: Beta-lactamase ADC-33 (Acinetobacter baumannii, UniProt B2ZTR6); test: Activity of Acinetobacter baumannii ADC-33 beta-lactamase
[31] = biological target: ADC-11 (Acinetobacter baumannii, UniProt D6NSM8); test: Activity of Acinetobacter baumannii ADC-11 beta-lactamase
[32] = tested on: Acinetobacter baumannii; test: Ratio of Kcat to Ki for Acinetobacter baumannii ADC-33 beta-lactamase to Kcat to Ki for Acinetobacter baumannii ADC-11 beta-lactamase

Row | SMILES | kcat/Km [13] | MIC [1] | MIC [3] | MIC [5] | MIC [6] | MIC [7] | MIC [8] | MIC [9] | MIC [10] | MIC [11] | MIC [12] | MIC [14] | MIC [28] | further results
1 | CO/N=C(\C(=O)N[C@@H]1C(=O)N2C(C(=O)[O-])=C(C[N+]3(C)CCCC3)CS[C@H]12)c1csc(N)n1 | 2e+07 M⁻¹ s⁻¹ | 0.5 mg/L (≈ 1.04 µM) | 256 mg/L (≈ 533 µM) | 1 mg/L (≈ 2.08 µM) | 0.032 mg/L (≈ 0.0666 µM) | 0.032 mg/L (≈ 0.0666 µM) | 1 mg/L (≈ 2.08 µM) | 0.125 mg/L (≈ 0.26 µM) | 0.25 mg/L (≈ 0.52 µM) | 0.125 mg/L (≈ 0.26 µM) | 0.125 mg/L (≈ 0.26 µM) | > 256 mg/L | – | MIC [2]: 2 mg/L (≈ 4.16 µM); MIC [4]: 32 mg/L (≈ 66.6 µM)
2 | CC1(C)S[C@@H]2[C@H](NC(=O)[C@H](N)c3ccccc3)C(=O)N2[C@H]1C(=O)O | 500000 M⁻¹ s⁻¹ | – | – | – | – | – | – | – | – | – | – | – | – | –
3 | CC1(C)S[C@@H]2[C@H](NC(=O)[C@H](N)c3ccc(O)cc3)C(=O)N2[C@H]1C(=O)O [AMOXICILLIN] | – | > 256 mg/L | > 256 mg/L | 32 mg/L (≈ 87.6 µM) | 256 mg/L (≈ 701 µM) | > 256 mg/L | > 256 mg/L | > 256 mg/L | > 256 mg/L | > 256 mg/L | > 256 mg/L | > 256 mg/L | > 256 mg/L | MIC [15]: 256 mg/L; MIC [16]: > 256 mg/L; MIC [17]: > 256 mg/L; MIC [18]: 256 mg/L; MIC [19]: 2 mg/L; MIC [20]: 2 mg/L (≈ 5.47 µM); MIC [21]: 16 mg/L; MIC [22]: 128 mg/L; MIC [23]: > 256 mg/L; MIC [24]: 256 mg/L; MIC [25]: > 256 mg/L; MIC [26]: 256 mg/L; MIC [27]: > 256 mg/L; MIC [29]: 64 mg/L
4 | C[C@H]1[C@H](NC(=O)/C(=N\OC(C)(C)C(=O)O)c2csc(N)n2)C(=O)N1S(=O)(=O)O [AZTREONAM] | – | 16 mg/L (≈ 36.7 µM) | 256 mg/L (≈ 588 µM) | 8 mg/L (≈ 18.4 µM) | – | 0.094 mg/L (≈ 0.216 µM) | 256 mg/L (≈ 588 µM) | 2 mg/L (≈ 4.59 µM) | 6 mg/L (≈ 13.8 µM) | 2 mg/L (≈ 4.59 µM) | 8 mg/L (≈ 18.4 µM) | > 256 mg/L | 256 mg/L (≈ 588 µM) | MIC [2]: 12 mg/L (≈ 27.6 µM); MIC [4]: > 256 mg/L; Ki [30]: 0.007 µM; Ki [31]: 3 µM
5 | CO/N=C(\C(=O)N[C@@H]1C(=O)N2C(C(=O)O)=C(COC(C)=O)CS[C@H]12)c1csc(N)n1 [CEFOTAXIME] | – | 256 mg/L (≈ 562 µM) | > 256 mg/L | 8 mg/L (≈ 17.6 µM) | 0.5 mg/L (≈ 1.1 µM) | 0.5 mg/L (≈ 1.1 µM) | > 256 mg/L | 8 mg/L (≈ 17.6 µM) | 16 mg/L (≈ 35.1 µM) | 8 mg/L (≈ 17.6 µM) | 128 mg/L (≈ 281 µM) | > 256 mg/L | > 256 mg/L | Ki [30]: 0.5 µM; MIC [20]: 0.047 mg/L (≈ 0.103 µM); kcat/Km [32]: 2e+07 M⁻¹ s⁻¹; Ki [31]: 2.5 µM

Now from value to compound, other results behind:

Row | kcat/Km [13] | SMILES | MIC [1] | MIC [3] | MIC [5] | MIC [6] | MIC [7] | MIC [8] | MIC [9] | MIC [10] | MIC [11] | MIC [12] | MIC [14] | MIC [28] | further results
6 | 500000 M⁻¹ s⁻¹ | CC(=O)OCC1=C(C(=O)O)N2C(=O)[C@@H](NC(=O)Cc3cccs3)[C@H]2SC1 | – | – | – | – | – | – | – | – | – | – | – | – | –
7 | 1.3e+06 M⁻¹ s⁻¹ | CC1(C)S[C@@H]2[C@H](NC(=O)Cc3ccccc3)C(=O)N2[C@H]1C(=O)O | – | – | – | – | – | – | – | – | – | – | – | – | –
8 | 800000 M⁻¹ s⁻¹ | O=C(Cc1cccs1)N[C@@H]1C(=O)N2C(C(=O)[O-])=C(C[n+]3ccccc3)CS[C@H]12 | – | – | – | – | – | – | – | – | – | – | – | – | –

From ChEMBL document CHEMBL1649315, “Extended-spectrum cephalosporinase in Acinetobacter baumannii” (Antimicrob Agents Chemother, 2010)
